Assay [1] concerns the target T1, Beta-secretase 1 (Homo sapiens, UniProt P56817). Briefly: Inhibition of recombinant human BACE1 at 0.2 uM by FRET analysis.
Assay [2] concerns the target T1, Beta-secretase 1. Briefly: Inhibition of recombinant human BACE1 at 2 uM by FRET analysis.
Assay [3] concerns the target T2, Renin (Homo sapiens, UniProt P00797).
T2 sequence (P00797 whole entry): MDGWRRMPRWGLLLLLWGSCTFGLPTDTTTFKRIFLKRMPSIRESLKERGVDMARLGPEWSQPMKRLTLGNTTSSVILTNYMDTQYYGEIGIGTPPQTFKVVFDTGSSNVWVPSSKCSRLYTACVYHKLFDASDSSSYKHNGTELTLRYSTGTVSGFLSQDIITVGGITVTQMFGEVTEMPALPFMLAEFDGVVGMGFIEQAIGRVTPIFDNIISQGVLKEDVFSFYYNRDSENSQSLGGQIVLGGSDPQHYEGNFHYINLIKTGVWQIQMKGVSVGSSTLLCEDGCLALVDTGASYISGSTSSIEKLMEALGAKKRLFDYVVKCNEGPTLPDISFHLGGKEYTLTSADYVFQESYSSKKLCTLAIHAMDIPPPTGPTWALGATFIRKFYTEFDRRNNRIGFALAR
As to the kind of experiment: Inhibition of human renin.

Assay [4] concerns the target T1, Beta-secretase 1. As to the kind of experiment: Inhibition of recombinant human BACE1 by FRET analysis.

Where only a bound is given, the exact number is not on record here.

T1 sequence (P56817 whole entry): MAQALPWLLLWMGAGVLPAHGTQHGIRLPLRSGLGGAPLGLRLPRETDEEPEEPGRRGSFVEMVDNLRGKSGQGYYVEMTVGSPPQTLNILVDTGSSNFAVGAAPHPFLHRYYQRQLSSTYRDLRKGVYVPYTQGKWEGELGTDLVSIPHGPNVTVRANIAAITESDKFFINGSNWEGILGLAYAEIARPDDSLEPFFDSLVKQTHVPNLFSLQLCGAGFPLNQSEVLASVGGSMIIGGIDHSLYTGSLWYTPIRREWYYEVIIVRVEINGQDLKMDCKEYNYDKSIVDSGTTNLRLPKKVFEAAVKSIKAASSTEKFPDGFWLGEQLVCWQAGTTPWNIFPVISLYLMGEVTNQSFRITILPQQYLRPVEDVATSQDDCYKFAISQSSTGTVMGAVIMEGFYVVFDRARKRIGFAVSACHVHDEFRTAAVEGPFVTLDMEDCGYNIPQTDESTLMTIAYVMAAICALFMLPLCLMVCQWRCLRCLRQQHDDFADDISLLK

What is called inhibition is the share of the control response that was lost under treatment. Turning to `Cc1nnc(NC(=O)[C@H](O)[C@H](Cc2ccccc2)NC(=O)c2cc(C(=O)N[C@H](C)c3ccccc3)cc(N(C)S(C)(=O)=O)c2)s1`, the inhibition in assay [1] turned out to be 50%; in assay [2] it was 90%.

With `C[C@@H](NC(=O)c1cc(C(=O)N[C@@H](Cc2ccccc2)[C@@H](O)C(=O)Nc2ncc(Br)s2)cc(N(C)S(C)(=O)=O)c1)c1ccccc1`, in assay [2], the inhibition is 78%.

Usually IC50 stands for the concentration that inhibits the measured activity by half. `C[C@@H](NC(=O)c1cc(C(=O)N[C@@H](Cc2ccccc2)[C@H](O)CNC2CC2)cc(N(C)S(C)(=O)=O)c1)c1ccccc1` yielded an IC50 in assay [3] greater than 50000 nM.

Consider `C[C@@H](NC(=O)c1cc(C(=O)N[C@@H](Cc2ccccc2)[C@@H](O)C(=O)Nc2nnc(-c3ccncc3)s2)cc(N(C)S(C)(=O)=O)c1)c1ccccc1`, for which the inhibition in assay [2] amounted to 49%.

Take `Cc1nnc(NC(=O)[C@@H](O)[C@H](Cc2ccccc2)NC(=O)c2cc(C(=O)N[C@H](C)c3ccccc3)cc(N(C)S(C)(=O)=O)c2)s1`: the inhibition in assay [2] was 58%.

As to `C[C@@H](NC(=O)c1cc(C(=O)N[C@@H](Cc2ccccc2)[C@@H](O)C(=O)Nc2nnc(-c3ccccc3)s2)cc(N(C)S(C)(=O)=O)c1)c1ccccc1`, in assay [2], the inhibition turned out to be 43%.

On to `CSc1nnc(NC(=O)[C@H](O)[C@H](Cc2ccccc2)NC(=O)c2cc(C(=O)N[C@H](C)c3ccccc3)cc(N(C)S(C)(=O)=O)c2)s1`, for which the inhibition in assay [1] was 43%; in assay [2], 84%.

Consider `C[C@@H](NC(=O)c1cc(C(=O)N[C@@H](Cc2ccccc2)[C@@H](O)C(=O)Nc2nnc(C(C)(C)C)s2)cc(N(C)S(C)(=O)=O)c1)c1ccccc1`, for which the inhibition in assay [2] was 48%.

On to `C[C@@H](NC(=O)c1cc(C(=O)N[C@@H](Cc2ccccc2)[C@@H](O)C(=O)Nc2nnc(C(F)(F)F)s2)cc(N(C)S(C)(=O)=O)c1)c1ccccc1`, for which the results for the inhibition in assay [1] and in assay [2] were 75% and 96%, respectively.

Regarding `C[C@@H](NC(=O)c1cc(C(=O)N[C@@H](Cc2ccccc2)[C@H](O)C(=O)Nc2nncs2)cc(N(C)S(C)(=O)=O)c1)c1ccccc1`, in assay [2], the inhibition was 38%.

In the case of `C[C@@H](NC(=O)c1cc(C(=O)N[C@@H](Cc2ccccc2)[C@@H](O)C(=O)Nc2ncc([N+](=O)[O-])s2)cc(N(C)S(C)(=O)=O)c1)c1ccccc1`, the inhibition in assay [1] came to 73%; in assay [2], 96%.

On to `C[C@@H](NC(=O)c1cc(C(=O)N[C@@H](Cc2ccccc2)[C@H](O)C(=O)Nc2nccs2)cc(N(C)S(C)(=O)=O)c1)c1ccccc1`, for which the inhibition in assay [2] worked out at 19%.

Take `CCc1nnc(NC(=O)[C@H](O)[C@H](Cc2ccccc2)NC(=O)c2cc(C(=O)N[C@H](C)c3ccccc3)cc(N(C)S(C)(=O)=O)c2)s1`: the values for the inhibition in assay [1] and in assay [2] were 51% and 88%, respectively.

For the compound `COC(=O)c1cnc(NC(=O)[C@H](O)[C@H](Cc2ccccc2)NC(=O)c2cc(C(=O)N[C@H](C)c3ccccc3)cc(N(C)S(C)(=O)=O)c2)s1`, the inhibition in assay [1] was determined as 56%; in assay [2], 87%.

Regarding `COC(=O)c1csc(NC(=O)[C@H](O)[C@H](Cc2ccccc2)NC(=O)c2cc(C(=O)N[C@H](C)c3ccccc3)cc(N(C)S(C)(=O)=O)c2)n1`, the inhibition in assay [2] stood at 30%.

For the compound `C[C@@H](NC(=O)c1cc(C(=O)N[C@@H](Cc2ccccc2)[C@@H](O)C(=O)Nc2nccs2)cc(N(C)S(C)(=O)=O)c1)c1ccccc1`, the inhibition in assay [2] worked out at 48%.

For the compound `C[C@@H](NC(=O)c1cc(C(=O)N[C@@H](Cc2ccccc2)[C@H](O)C(=O)Nc2nc3ccccc3s2)cc(N(C)S(C)(=O)=O)c1)c1ccccc1`, the inhibition in assay [2] amounted to 5%.

`C[C@@H](NC(=O)c1cc(C(=O)N[C@@H](Cc2ccccc2)[C@@H](O)C(=O)Nc2nc3ccccc3s2)cc(N(C)S(C)(=O)=O)c1)c1ccccc1`: the inhibition in assay [2] worked out at 29%.

Consider `C[C@@H](NC(=O)c1cc(C(=O)N[C@@H](Cc2ccccc2)[C@@H](O)C(=O)Nc2nnc(Br)s2)cc(N(C)S(C)(=O)=O)c1)c1ccccc1`, for which the half-inhibitory concentration (IC50) in assay [4] came out at 26 nM. In addition, the inhibition was found to be 79% in assay [1] and 97% in assay [2].

For the compound `C[C@@H](NC(=O)c1cc(C(=O)N[C@@H](Cc2ccccc2)[C@@H](O)C(=O)Nc2nncs2)cc(N(C)S(C)(=O)=O)c1)c1ccccc1`, the inhibition amounted to 39% in assay [1] and 83% in assay [2].

`CCSc1nnc(NC(=O)[C@H](O)[C@H](Cc2ccccc2)NC(=O)c2cc(C(=O)N[C@H](C)c3ccccc3)cc(N(C)S(C)(=O)=O)c2)s1`: the inhibition in assay [1] was 45%; in assay [2] it was 86%.

The values above are taken from ChEMBL document CHEMBL2440003, “Novel BACE1 inhibitors with a non-acidic heterocycle at the P1' position” (Bioorg Med Chem, 2013).
